Assay results as given in US20240099214A1, “PLANT DEFENCE GENE EXPRESSION” (UPL Corporation Limited, priority 2021, published 2024).

Tests used:
[1] = system: PR protein (gene 12, M69248.1); experiment: qRT-PCR expression of gene 12 in tomato leaves; type: in vivo, Tomato ecotype corbarino; set-up: key to RQ1 / RQ2 / RQ3 / RQ mean: relative expression normalized to a-tubulin housekeeping gene; conditions: for gene 12 (PR1 protein) expression: laminarin treatment group not specified
Protocol: (§1) Tomato ecotype “corbarino” reported to be susceptible to TSWV infection was used in the experiment. Plants were grown in pots in a climatic chamber with a photoperiod of 16/8 hour at 25° C.
(§2) The viral strain (TSWV PV PV-0393) was utilized in the experiment. The virus was mechanically inoculated and propagated on tomato “corbarino”. The inoculum was prepared in an ice-cooled mortar grounding 1 gr of infected tomato tissue in 10 ml of Na-phosphate buffer 0.01M. The fresh prepared inoculum was stored in ice before use. Tomato plants at BBCH16 were dusted with Carborundum 600 mesh and selected leaves were rubbed with some droplets of inoculum. After 5 min. plants were sprayed with sterile water to remove the excess of inoculum and preserve the cell turgor.
(§3) Four treatments were compared: i) Mock inoculated; ii) TSWV; iii) 0.25% Laminarin; iv) 0.25% Laminarin+TSWV. In the last treatment the virus was inoculated 24 hrs after the laminarin application.
(§4) Total RNA was extracted from systemic infected tomato leaves by using the Quick-RNA Plant Kit (Zymo Research) following the manufacturer instructions. The extractions were carried out using three plants after 12 h, 24 h, 48 h, 72 h, 7 days after inoculation. Leaves were instantly frozen in liquid nitrogen after cutting to avoid any deterioration of the sample as well as any defense reaction. The RNA concentration was quantified by measuring the absorbance at 260 nm using a Nanodrop 2000 (Thermofisher). The purity of all of the RNA samples was assessed at an absorbance ratio of OD260/280 and OD260/230, while its structural integrity was checked by agarose gel electrophoresis. Only high-quality RNA with OD 260/280 and OD 260/230>2 was used for subsequent steps. Single-stranded cDNA was synthesized from 1 μg of total RNA using an iScript™ Select cDNA Synthesis Kit and random hexamers as primers (Bio-Rad, Milan, Italy), according to the manufacturer's instructions. Three biological replicates were created from the 3 leaves collected to test 15 genes. Alpha tubulin was used as reference gene.
(§5) qPCR reactions were performed with BioRad (Applied Biosystems, Foster City, CA, USA) using SYBR R Green. Each reaction was performed in 20 μl containing 10 μl of 2× Power SYBR Green PCR Master Mix (Life Technologies), 0.2-0.3 μM primers and cDNA samples diluted 1:20. Each qPCR reaction was performed in triplicate. Reactions were run using the cycling parameter described previously (Reid et al., 2006) and the qPCR data were analyzed by the Ct method (Pfaffl, 2001). In order to analyze the qPCR data, a-tubulin gene was used as housekeeping to determine the relative expression level of the other genes analyzed in this work. For the determination of qPCR efficiency of each primer pairs, a standard curve was performed using the following cDNA dilutions: 1:4, 1:16, 1:64; 1:256 and 1:1024. Every measurement was made in triplicate. The corresponding qPCR efficiencies (E) were calculated for every primer pair with the software 7300 System SDS software (Applied Biosystems, Foster City, CA, USA) according to the equation E=(10−1/slope−1)×100 (Rutledge and Stewart, 2008).
(§6) The significance of the differences between the gene expressions levels were compared by one-way ANOVA (p=0.01) and the means were separated by Tukey post-hoc test using SPSS ver.26 ([…]).

[2] = system: 1-aminocryclopropane-1-carboxylate oxidase-like protein (gene 6, Solyc11g072100.1); experiment: qRT-PCR expression of gene 6 in tomato leaves; type: in vivo, Tomato ecotype corbarino; set-up: key: relative expression normalized to a-tubulin housekeeping gene
Protocol: as §1, §2, §3, §4, §5, §6

[3] = Gene_12, 24 hr, treatment Laminarin
[4] = Gene_12, 24 hr, treatment Laminarin + virus
[5] = Gene_12, 48 hr, treatment Laminarin
[6] = Gene_12, 48 hr, treatment Laminarin + virus
[7] = Gene_12, 72 hr, treatment Laminarin
[8] = Gene_12, 72 hr, treatment Laminarin + virus

Substance: laminarin
- RQ1 ([1]; 12 hr, Laminarin + virus): 10.097
- RQ2 ([1]; 12 hr, Laminarin + virus): 0.9948
- RQ3 ([1]; 12 hr, Laminarin + virus): 11.722
- RQ mean ([1]; 12 hr, Laminarin + virus): 10.589
- RQ1 ([1]; 12 hr, Laminarin alone): 0.9616
- RQ2 ([1]; 12 hr, Laminarin alone): 11.039
- RQ3 ([1]; 12 hr, Laminarin alone): 10.693
- RQ mean ([1]; 12 hr, Laminarin alone): 10.449
- gene 12 (PR1 protein) expression ([1]; 48 hr post treatment, not statistically significant): highly overexpressed
- gene 12 (PR1 protein) expression ([1]; 72 hr, statistically significant): overexpression of gene 12 is slightly reduced
- activation of systemic acquired resistance (SAR), inferred from gene 12 overexpression ([1]; 72 hr, tomato): activate the SAR
- RQ1 [1, 3]: 11.678
- RQ2 [1, 3]: 11.217
- RQ3 [1, 3]: 10.555
- RQ mean [1, 3]: 11.150
- RQ1 [1, 4]: 0.9321
- RQ2 [1, 4]: 11.344
- RQ3 [1, 4]: 11.191
- RQ mean [1, 4]: 10.619
- RQ1 [1, 5]: 46.753
- RQ3 [1, 5]: 31.171
- RQ mean [1, 5]: 60.670
- RQ1 [1, 6]: 42.751
- RQ2 [1, 6]: 56.022
- RQ3 [1, 6]: 37.918
- RQ mean [1, 6]: 45.564
- RQ1 [1, 7]: 44.543
- RQ2 [1, 7]: 23.924
- RQ3 [1, 7]: 31.675
- RQ mean [1, 7]: 33.381
- RQ1 [1, 8]: 36.333
- RQ2 [1, 8]: 29.356
- RQ3 [1, 8]: 21.584
- RQ mean [1, 8]: 29.091
- RQ1 ([2]; 12 hr, Laminarin alone): 0.9088
- RQ2 ([2]; 12 hr, Laminarin alone): 0.971
- RQ3 ([2]; 12 hr, Laminarin alone): 0.8924
- RQ mean ([2]; 12 hr, Laminarin alone): 0.9241
- RQ1 ([2]; 24 hr, Laminarin + virus): 13.422
- RQ2 ([2]; 24 hr, Laminarin + virus): 17.528
- RQ3 ([2]; 24 hr, Laminarin + virus): 12.610
- RQ mean ([2]; 24 hr, Laminarin + virus): 14.520
- RQ1 ([2]; 24 hr, Laminarin alone): 16.709
- RQ2 ([2]; 24 hr, Laminarin alone): 18.603
- RQ3 ([2]; 24 hr, Laminarin alone): 0.8182
- RQ mean ([2]; 24 hr, Laminarin alone): 14.498
- RQ1 ([2]; 48 hr, Laminarin + virus): 14.823
- RQ2 ([2]; 48 hr, Laminarin + virus): 17.395
- RQ3 ([2]; 48 hr, Laminarin + virus): 0.9742
- RQ mean ([2]; 48 hr, Laminarin + virus): 13.987
- RQ1 ([2]; 48 hr, Laminarin alone): 16.033
- RQ2 ([2]; 48 hr, Laminarin alone): 16.927
- RQ3 ([2]; 48 hr, Laminarin alone): 10.675
- RQ mean ([2]; 48 hr, Laminarin alone): 14.545
- RQ1 ([2]; 72 hr, Laminarin + virus): 26.404
- RQ2 ([2]; 72 hr, Laminarin + virus): 20.406
- RQ3 ([2]; 72 hr, Laminarin + virus): 19.154
- RQ mean ([2]; 72 hr, Laminarin + virus): 21.988
- RQ1 ([2]; 72 hr, Laminarin alone): 27.013
- RQ2 ([2]; 72 hr, Laminarin alone): 20.615
- RQ3 ([2]; 72 hr, Laminarin alone): 19.604
- RQ mean ([2]; 72 hr, Laminarin alone): 22.410
